Measurements as given in patent publication US11000587B2, “Use as immune enhancer or pharmaceutical composition for treatment of dementia, comprising phytosphingosine-1-phosphate or derivative thereof” (AXCESO BIOPHARMA CO., LTD., priority 2016, dated 2021).

Assays:
Raw264.7 cells = assay: TNF-α production in LPS-stimulated macrophages (ELISA); type: cell-based, mouse; conditions: LPS 1 ng/mL; for Amount of TNF-α / inhibition at 0.01 µM / inhibition at 0.1 µM / inhibition at 0.5 µM / inhibition at 1 µM: 4 hours; for inhibition at 0.01 µM / inhibition at 0.1 µM / inhibition at 0.5 µM / inhibition at 1 µM: Mus musculus, RAW264.7, 4 h, read-out: Inhibition rate of TNF-α production
Procedure: Raw264.7 cells, which is a mouse macrophage cell line (Korean Cell Line Bank, cultured with RPMI 1640/10% fetal bovine serum) were seeded at 4.5×10^5/mL and cultured overnight, and then, treated with LPS (lipopolysaccharide) (1 ng/mL), and S1P and P1P diluted with a culture medium according to the concentrations ([…]). After culturing at 37° C. in a 5% CO2 incubator for 4 hours, the supernatant was collected and stored at 4° C. The concentration of TNF-α, an inflammatory cytokine secreted in the supernatant, was measured using an ELISA kit (BD OptEIA™ TNF Mouse set) according to the manufacturer's instructions. The culture medium was diluted by ¼ in all experimental groups except for the treated group, and the concentration was measured.

PC12 cell = assay: Protection against neuronal cell death induced by hydrogen peroxide (oxidative stress), Ez-Cytox viability; type: cell-based, Mouse; conditions: 100 nM, 350 μM hydrogen peroxide (about 90% of nerve cells killed without treatment)
Procedure: PC12 cell line (KCLB 21721, Korea Cell Line Bank, Seoul, Korea) was used to test the effect of P1P and the antibodies on the neuronal cell death caused by hydrogen peroxide and Aβ. The PC12 cells were cultured in RPMI 1640 medium containing 10% fetal bovine serum and 1% penicillin/streptomycin at 37° C. in a 5% CO2 incubator.
After culturing the cells for 24 hours, P1P, cyclic P1P and NAPS-1-P dissolved in DMSO to a concentration of 2 mM were diluted and added to the medium such that the concentrations were 10 nM, 100 nM and 1000 nM. After culturing for 1 hour, 350 μM of H2O2 was added to […] and cultured. Subsequently, in order to measure cell viability, the absorbance was measured at 450 nm using Ez-Cytox (Dogen) after 6 hours, and the efficacy of P1P and derivatives thereof against oxidative stress was measured. The cell death induced by Aβ was initiated by treating 10 μM of Aβ instead of 350 μM of hydrogen peroxide, and the efficacy of P1P and the antibodies against the cell death induced by Aβ was measured using Ez-Cytox after 24 hours.

Aβ antigen [1] = assay: Antibody-forming ability in vaccinated mice, total IgG titer (ELISA); type: in vivo, Balb/c mice; conditions: vaccine with Aβ antigen, intramuscular
Procedure: (§1) The mice were inoculated with the vaccines prepared as described above. 6-week-old Balb/c mice were used in the experiment, and there were 4 mice per group. The mice were injected intramuscularly with the vaccines prepared containing PBS, Alum, S1P (EB101), P1P, cyclic P1P, and NAPS-1-P as described above. […] The vaccine candidates were inoculated twice at an interval of 3 weeks. PBS was used as a negative control without Aβ antigen, and S1P and Alum were used as control. Alum is an adjuvant used in vaccines and is known to induce a Th2 immune response, and thus was used as a positive control for the Th2 response, and S1P was used as a control for comparison of antibody producing-ability.
The antibody-forming ability in the serum was determined as follows:
A 96-well plate was coated with Aβ antigen (1 μg/mL) and reacted at room temperature overnight. Then, the solution in each well was removed and blocked with albumin. The primary antibody (the immune serum) was subjected to 2-fold dilution with the following composition solution (0.014 M sodium phosphate, pH 7.4, 0.15 M NaCl, 0.6% albumin, 0.05% thimerosal) and added to each well. After reacting at room temperature for about 1 hour, the antibodies were washed 5 times with PBS containing 0.05% Tween 20. Subsequently, a secondary antibody conjugated to horseradish peroxidase (goat mouse IgG conjugated to horseradish peroxidase, Boehringer Mannheim) was added and reacted at room temperature for 1 hour. After washing 5 times with PBS containing Tween, 100 μL of 3,3,5,5-tetramethyl benzidine (from Pierce Chemicals) was added for color development, and reacted at room temperature for 15 minutes. The color development reaction was terminated by adding sulfuric acid.

Aβ antigen [2] = assay: IgG isotyping (IgG1, IgG2a, IgG2b titer) in vaccinated mice; type: in vivo, Balb/c mice; conditions: blood collected at 4th week after the second vaccination
Procedure: as §1
In the fourth week, which was the last week, about 300 to 400 μl of blood was collected from the heart, and the serum components were separated by centrifugation at 1400 rpm for 10 minutes at room temperature. The antibody-forming ability in the serum was determined as follows:
The IgG isotyping was measured in the same manner as the total IgG measurement except that the following antibodies were used as secondary antibodies. For IgG1, IgG2a and IgG2b, anti-mouse IgG1, IgG2a or IgG2b conjugated to horseradish peroxidase (Boehringer Mannheim) were used.

IL-4 = assay: Th2 cytokine (IL-4) from splenocytes of inoculated mice re-stimulated with Aβ antigen; type: in vivo; conditions: for IL-4: splenocytes of vaccinated mice, re-stimulated with Aβ antigen 72 hours
Procedure: as §1
(§2) The spleen was removed from the mice inoculated as described above to obtain splenocytes. Red blood cells were lysed with 100 mM Tris buffer. The obtained splenocytes were washed twice with PBS and centrifuged at 1600 rpm for 5 minutes. […] The splenocytes thus obtained were re-stimulated with a constant amount of Aβ antigen for 72 hours.
(§3) Subsequently, Th1 cytokine (TNF-α) and Th2 cytokine (IL-4) secreted from the mouse splenocytes were subjected to an ELISpot assay using an ELISPOT (BD Pharmingen) kit according to the manufacturer's instructions. The number of colored spots was measured to compare the number of cytokine-secreting cells.

TNF-α = assay: Th1 cytokine (TNF-α) from splenocytes of inoculated mice re-stimulated with Aβ antigen; type: in vivo; conditions: for TNF-α: splenocytes of vaccinated mice, re-stimulated with Aβ antigen 72 hours
Procedure: as §1, §2, §3

[3] = 2 weeks after secondary inoculation
[4] = 3 weeks after primary inoculation
[5] = 4 weeks after secondary inoculation

Row | SMILES | Amount of TNF-α (Raw264.7 cells; 10 nM) [pg/mL] | Amount of TNF-α (Raw264.7 cells; 100 nM) [pg/mL] | Amount of TNF-α (Raw264.7 cells; 500 nM) [pg/mL] | Amount of TNF-α (Raw264.7 cells; 1000 nM) [pg/mL] | inhibition at 0.01 µM (Raw264.7 cells; 10 nM) [%] | inhibition at 0.1 µM (Raw264.7 cells; 100 nM) [%] | inhibition at 0.5 µM (Raw264.7 cells; 500 nM) [%] | inhibition at 1 µM (Raw264.7 cells; 1000 nM) [%] | neuronal cell death induced by hydrogen peroxide (PC12 cell) | Average Antibody Titer (Aβ antigen [1]; [3]) | Average Antibody Titer (Aβ antigen [1]; [4]) | Average Antibody Titer (Aβ antigen [1]; [5]) | Average Antibody Titer (Aβ antigen [1]; Before inoculation) | IgG1 Average Antibody Titer (Aβ antigen [2]) | IgG2a Average Antibody Titer (Aβ antigen [2]) | IgG2b Average Antibody Titer (Aβ antigen [2]) | IL-4 (IL-4) [pg/mL] | TNF-α (TNF-α) [pg/mL] | further results
1 | CCCCCCCCCCCCCC[C@@H](O)[C@H]1OP(=O)(O)OC[C@@H]1N [CP1P, O-cyclic P1P] | 10600 | 7800 | 7500 | 7550 | 26.3 | 26.3 | 47.9 | 47.5 | the nerve cells were not killed | 11000 ± 2500 | 140 ± 50 | 9000 ± 2000 | 0 | 6100 ± 2100 | 0 | 0 | 12.06 ± 1.25 | 42.9 ± 15.52 | –
2 | CCCCCCCCCCCCCC[C@@H](O)[C@@H](O)[C@H](COP(=O)(O)O)NC(C)=O [NAPS-1-P, N-acetyl phytosphingosine-1-phosphate] | 15000 | 15200 | 12200 | 10000 | -4.2 | -4.2 | 15.3 | 30.6 | the nerve cells were not killed | 5600 ± 2000 | 84 ± 50 | 5600 ± 2000 | – | 1700 ± 600 | 0 | 0 | 11.04 ± 0.78 | 40.4 ± 15.52 | –
3 | CCCCCCCCCCCCC/C=C/[C@@H](O)[C@@H](N)COP(=O)(O)O [S1P, sphingosine-1-phosphate] | 15000 | 13880 | 12700 | 116600 | -4.2 | -4.2 | 11.8 | ~19 | – | 4000 ± 1500 | 140 ± 80 | 4800 ± 2000 | 0 | 1200 ± 430 | 0 | 0 | 11.84 ± 2.25 | 36.25 ± 20.15 | secretion of TNF-α, trend with concentration (Raw264.7 cells): tended to decrease slightly in a concentration-dependent manner; increase in IL-4, statistical significance (IL-4; splenocytes of immunized mice): statistically significant increase; increase in TNF-α, statistical significance (TNF-α; splenocytes of immunized mice): did not show a statistically significant increase
